Laboratory results taken from patent publication US10859504B2, “Degradable cationic surfactants and use thereof in enhancing chemiluminescence” (Siemens Healthcare Diagnostics Inc., priority 2013, dated 2020).

Tests used:
[1] = Chemiluminescence measurement of anti-TSH antibody conjugate of acridinium ester 3c with cationic surfactants; details: for Observed enhancement (fold) of chemiluminescence: no surfactant control = 1; for Observed acceleration of emission kinetics (time to >90% emission): without surfactant 62.5 seconds
Procedure: (§1) To study the impact of degradable cationic surfactants on acridinium ester chemiluminescence, two exemplary cationic surfactants containing cleavable linkages (FIG. 2A) were selected. The synthetic schemes for the two surfactants are illustrated in FIGS. 3-4 and described in Examples 1 and 2 above. Both surfactants were dissolved in Reagent 1 (0.1 M nitric acid containing 0.5% hydrogen peroxide) at five times their reported CMCs in water. CTAC dissolved in Reagent 2 (0.25 M NaOH) was used as the control surfactant. The two carbonate and amide cationic surfactants (FIG. 2A) were dissolved in Reagent 1 to preserve stability, especially during long term storage (Stjerndahl and Holmberg, J. Colloid and Interface Sci., 2005, 291, 570-576). Three acridinium esters (FIG. 2B, compounds 3a, 3b and 3c) were used to make protein conjugates of an anti-TSH antibody (TS=thyroid stimulating hormone) as described in the literature (Natrajan et al, Org. Biomol. Chem., 2011, 9, 5092-5103; Natrajan et al, Org. Biomol. Chem., 2012, 10, 3432-3447). The conjugates contained approximately 5 labels. The conjugates were stored at 4° C. in buffer and chemiluminescence from each conjugate was measured in the absence of surfactant and in the presence of CTAC as well as cationic surfactants 1 and 2 (Tables 1-3, FIGS. 5-7). The ability of each surfactant to (a) increase total light output and (b) accelerate emission kinetics was evaluated over a period of 80 days.
(§2) Chemiluminescence of anti-TSH antibody conjugates of acridinium esters 3a, 3b and 3c (FIG. 2B) was measured on an Autolumat LB953 Plus luininometer from Behold Technologies. The conjugates, ˜2 mg/mL containing approximately five labels, were serially diluted 10^5-fold for chemiluminescence measurements in an aqueous buffer of 10 mM disodium hydrogen phosphate, 0.15 M NaCl and 8 mM sodium azide and 0.015 mM bovine serum albumin (BSA), pH 8.0. A 0.010 mL volume of each diluted acridinium ester sample was dispensed into the bottom of a cuvette. Cuvettes were placed into the primed LB953 and the chemiluminescence reaction was initiated with the sequential addition of 0.3 mL of Reagent 1, a solution of 0.5% hydrogen peroxide in 0.1 M nitric acid followed by the addition of 0.3 mL of Reagent 2, a solution of 0.25 M sodium hydroxide. For measurements in the presence of CTAC, the surfactant (7 mM) was included in Reagent 2. For measurements in the presence of the cationic amide surfactant 1 or the cationic carbonate surfactant 2, each surfactant was dissolved in Reagent 1 at 3.2 mM (surfactant 1) and 2.15 mM (surfactant 2). Each chemiluminescence flash curve was measured in 240 intervals of 0.5 second (120 seconds total time). Each chemiluminescence reaction was carried out a minimum of three times, averaged and converted to a percentage of the chemiluminescence accumulated up to each time interval. The output from the luminometer instrument was expressed as R.L.U.s (Relative Light Units).

[2] = Chemiluminescence measurement of anti-TSH antibody conjugate of acridinium ester 3b with cationic surfactants; details: for Observed enhancement (fold) of chemiluminescence: no surfactant control = 1; for Observed acceleration of emission kinetics (time to >90% emission): without surfactant 49.5 seconds
Procedure: as §1, §2

[3] = Chemiluminescence measurement of anti-TSH antibody conjugate of acridinium ester 3a with cationic surfactants; details: for Observed enhancement (fold) of chemiluminescence: no surfactant control = 1; for Observed acceleration of emission kinetics (time to >90% emission): without surfactant 57.5 seconds; for accelerated emission kinetics: as shown in Table 1b, from 57.5 seconds without surfactant
Procedure: as §1, §2

[4] = Stability of surfactants in Reagent 1 (0.5% peroxide in 0.1 M nitric acid) on storage; format: physicochemical; details: for stability in Reagent 1: 0.5% peroxide in 0.1 M nitric acid, 80 days at room temperature, little loss in ability to enhance chemiluminescence; for ability to accelerate light emission after storage: 80 days of storage at room temperature
Procedure: as §1
For example, for all three acridinium ester conjugates, in comparison to the no surfactant control which was assigned a relative light yield of one, total light yield was increased approximately 2.5-4-fold for 3a, 3-5-fold for 3b and 3-4.5-fold for 3c (Tables 1a, 2a and 3a) for CTAC as well as surfactants 1 and 2. […] Even at day 80, the fold of increased light emission using surfactant 2 remains to be about 80% (2.8/3.5) of CTAC. Similarly, the fold of increased light emission using Surfactant 1 is about 89% (3.1/3.5) on day 1, and 74% (2.6/3.5) on day 80 compared to CTAC.
Furthermore, both surfactants 1 and 2 were very effective in accelerating light emission from the acridinium ester antibody conjugates (Tables 1b, 2b and 3b, FIGS. 5-7). […] In the presence of CTAC or the two cationic surfactants 1 and 2, emission times were compressed to <3 seconds for the conjugates of all three acridinium ester labels.

Row | Structure (SMILES) | Observed enhancement (fold) of chemiluminescence ([1]; Day 1) [fold] | Observed acceleration of emission kinetics (time to >90% emission) ([1]; Day 1) [s] | Observed enhancement (fold) of chemiluminescence ([1]; Day 10) [fold] | Observed acceleration of emission kinetics (time to >90% emission) ([1]; Day 10) [s] | Observed enhancement (fold) of chemiluminescence ([1]; Day 20) [fold] | Observed acceleration of emission kinetics (time to >90% emission) ([1]; Day 20) [s] | Observed enhancement (fold) of chemiluminescence ([1]; Day 40) [fold] | Observed acceleration of emission kinetics (time to >90% emission) ([1]; Day 40) [s] | Observed enhancement (fold) of chemiluminescence ([1]; Day 80) [fold] | Observed acceleration of emission kinetics (time to >90% emission) ([1]; Day 80) [s] | Observed enhancement (fold) of chemiluminescence ([2]; Day 1) [fold] | Observed acceleration of emission kinetics (time to >90% emission) ([2]; Day 1) [s] | Observed enhancement (fold) of chemiluminescence ([2]; Day 10) [fold] | Observed acceleration of emission kinetics (time to >90% emission) ([2]; Day 10) [s] | Observed enhancement (fold) of chemiluminescence ([2]; Day 20) [fold] | Observed acceleration of emission kinetics (time to >90% emission) ([2]; Day 20) [s] | Observed enhancement (fold) of chemiluminescence ([2]; Day 40) [fold] | Observed acceleration of emission kinetics (time to >90% emission) ([2]; Day 40) [s] | Observed enhancement (fold) of chemiluminescence ([2]; Day 80) [fold] | Observed acceleration of emission kinetics (time to >90% emission) ([2]; Day 80) [s] | also measured
1 | CCCCCCCCCCCCCCCC(=O)NCC[N+](C)(C)C [surfactant 1] | 3.8 | 2.0 | 3.8 | 2.0 | 4.1 | 2.0 | 3.2 | 2.0 | 3.0 | 2.0 | 4.5 | 1.0 | 4.4 | 0.5 | 4.7 | 0.5 | 3.4 | 0.5 | 3.4 | 0.5 | Observed enhancement (fold) of chemiluminescence ([3]; Day 1): 3.1 fold; Observed acceleration of emission kinetics (time to >90% emission) ([3]; Day 1): 1.0 s; Observed enhancement (fold) of chemiluminescence ([3]; Day 10): 3.1 fold; Observed acceleration of emission kinetics (time to >90% emission) ([3]; Day 10): 1.0 s; Observed enhancement (fold) of chemiluminescence ([3]; Day 20): 3.4 fold; Observed acceleration of emission kinetics (time to >90% emission) ([3]; Day 20): 1.0 s; Observed enhancement (fold) of chemiluminescence ([3]; Day 40): 2.6 fold; Observed acceleration of emission kinetics (time to >90% emission) ([3]; Day 40): 1.0 s; Observed enhancement (fold) of chemiluminescence ([3]; Day 80): 2.6 fold; Observed acceleration of emission kinetics (time to >90% emission) ([3]; Day 80): 1.0 s; accelerated emission kinetics [3]: 1.0 s; fold of increased light emission compared to CTAC ([3]; day 1): about 89%; fold of increased light emission compared to CTAC ([3]; day 80): ~74%; stability in Reagent 1 [4]: quite stable; ability to accelerate light emission after storage [4]: did not diminish
2 | CCCCCCCCCCCCOC(=O)OCCCC[N+](C)(C)C [surfactant 2] | 4.2 | 1.0 | 4.2 | 1.0 | 4.4 | 1.5 | 3.7 | 1.5 | 3.5 | 1.5 | 5.0 | 0.5 | 5.2 | 0.5 | 5.2 | 0.5 | 3.9 | 0.5 | 4.1 | 0.5 | Observed enhancement (fold) of chemiluminescence ([3]; Day 1): 3.5 fold; Observed acceleration of emission kinetics (time to >90% emission) ([3]; Day 1): 1.0 s; Observed enhancement (fold) of chemiluminescence ([3]; Day 10): 3.6 fold; Observed acceleration of emission kinetics (time to >90% emission) ([3]; Day 10): 1.0 s; Observed enhancement (fold) of chemiluminescence ([3]; Day 20): 3.7 fold; Observed acceleration of emission kinetics (time to >90% emission) ([3]; Day 20): 1.0 s; Observed enhancement (fold) of chemiluminescence ([3]; Day 40): 3.2 fold; Observed acceleration of emission kinetics (time to >90% emission) ([3]; Day 40): 1.0 s; Observed enhancement (fold) of chemiluminescence ([3]; Day 80): 2.8 fold; Observed acceleration of emission kinetics (time to >90% emission) ([3]; Day 80): 1.0 s; accelerated emission kinetics [3]: 1.0 s; fold of increased light emission compared to CTAC ([3]; day 80): about 80%; effectiveness in enhancing chemiluminescence relative to CTAC ([3]; within at least the first 10 days (Table 1a)): as effective as CTAC; stability in Reagent 1 [4]: quite stable; ability to accelerate light emission after storage [4]: did not diminish
